Source: patent US9359616B2, “Ribosomal polynucleotides and related expression systems” (The Scripps Research Institute, priority 2012, dated 2016)

Key:
wild type 40S subunits = test: 35S-Met/Cys pulse labeling of transfected N2a cells cultured with increasing concentrations of pactamycin (wild type ribosomes); assay type: cell-based, mouse; conditions: 100 ng/ml pactamycin, could be further blocked at higher concentrations, SDS-PAGE of 35S-labeled lysates (FIG. 4d)
Excerpt: There were no reports of functionally tested examples of nucleotide changes conferring antibiotic resistance in higher eukaryotes. Pactamycin affects translation by binding to rRNA in the E-site of the small subunit and disrupting the positioning of mRNA at this site. The result of pactamycin-binding is a block in […] and the accumulation of di-peptides resulting from aborted initiation events. Analyzed were the effects of mutations in mouse 18S rRNA at four residues, G963, A964, C1065 and C1066 in SEQ ID NO:23. These residues correspond, respectively, to positions 693, 694, 795 and 796 at the E-site of E. coli 16S rRNA which were identified from crystal structures. Unless otherwise noted, the numbering of these sites in mammalian 18S rRNA sequences is based on that in E. coli 16S rRNA. […] Pactamycin resistance was assessed by 35S-Met/Cys pulse labeling of transfected cells in the presence of 100 ng/ml antibiotic. […] Mutated ribosomes were also analyzed for their ability to translate a luciferase mRNA in cells transfected with a luciferase reporter plasmid (pGL4.13), and cultured in the presence of 100 ng/ml pactamycin (FIG. 4b).
The levels of synthetic 18S rRNA for constructs with each mutation were monitored using the hybridization tag and found no substantial differences that could account for the difference in translation between G693A and the other mutations (FIG. 4c). […]

[1] = test system: mutated subunits (G693A 18S rRNA); test: 35S-Met/Cys pulse labeling of transfected N2a cells cultured with increasing concentrations of pactamycin (G693A mutated ribosomes); assay type: cell-based, mouse; conditions: even at the highest concentration tested of 6,400 ng/ml pactamycin; N2a cells (FIG. 4d)

`CC(=O)c1cccc(N[C@H]2[C@H](N)[C@@](NC(=O)N(C)C)([C@H](C)O)[C@@](C)(O)[C@@]2(O)COC(=O)c2c(C)cccc2O)c1` [pactamycin] was tested, and the “translation from wild type 40S subunits” value (wild type 40S subunits) was “substantially blocked” and the “translation from the mutated subunits” value [1] was “unaffected”.
